Test results taken from US20260091050A1, “ADVANTAGEOUS ANTI-HCV COMBINATION THERAPY” (Atea Pharmaceuticals, Inc., priority 2021, published 2026).
Several values for one entry are separate records, joined by “and”; a condition that tells them apart may be missing. Equal entries are not always repeated.

Tests used:
[1] = Accelerated stability (40 ± 2° C./75 ± 5% RH) of Compound 1-A over 6 months; format: physicochemical
Description: Three conditions were tested: accelerated stability (40±2° C./[…]) over a 6-month time period, ambient stability (25±2° C./[…]) over a 9-month period, and stability under refrigerator conditions (5±3° C.) over a 9-month time period. The results for accelerated stability, ambient stability, and refrigerator conditions are shown in Table 23, Table 24, and Table 25, respectively.

[2] = Heart and liver tissue levels of active triphosphate 4 hours after oral Compound 1-A, dog; format: in vivo; details: 4 hours after single oral dose
Description: High levels of the active TP were measured in the liver of all species tested.

[3] = Single ascending dose study of Compound 1-A in healthy volunteers (Part A); format: in vivo, human
Description: Compound 1-A was tested in a single ascending dose (SAD) study to measure its safety, tolerability, and pharmacokinetic in healthy subjects (Part A). Part A was a randomized, double-blind, placebo-controlled SAD study. Healthy subjects in Part A received a single dose of Compound 1-A or placebo in the fasting state. Subjects were confined to the clinic from Day −1 to Day 6.
Dosing in each cohort was staggered such that 2 subjects (1 active:1 placebo) were evaluated for 48 hours after dosing before the remainder of the cohort was dosed. Each cohort received Compound 1-A in ascending order. Dosing of sequential cohorts occurred based on review of available safety data (through Day 5) and plasma pharmacokinetic data (through 24 h) of the prior cohort.
As pharmacokinetic and safety data emerged from prior cohorts, doses evaluated in Cohorts 3a-4a were adjusted by increments no more than 100 mg.
Healthy volunteers in the Part A portion of the study were male and female subjects between the ages of 18 and 65. Active and placebo recipients were pooled within each Part A cohort to preserve the study blind.

[4] = system: GT1, GT2, or GT3 HCV; assay: 600 mg QD for 7 days in Child-Pugh A cirrhotic patients with GT1, GT2 or GT3 HCV (Part E); format: in vivo, human; details: for Mean Max Reduction / Mean Reduction After 24 hours / HCV RNA < LOQ (15 IU/mL): 600 mg of Compound 1-A; for HCV RNA < LOQ (15 IU/mL): subjects/total
Description: Doses were administered as the Compound 1-A salt base. The free base Compound 1 equivalent is often given in parenthesis. […]
HCV-infected patients were treatment-naïve with HCV RNA ≥5 log 10 IU/mL. HCV RNA was quantified using COBAS® AmpliPrep TaqMAN® v2.0 with LLQ of 15 IU/mL. Plasma drug levels were measured using LC-MS/MS. […] Mean ages of enrolled subjects were 44, 39, and 56 years in the non-cirrhotic GT1b 600 mg dose cohort, non-cirrhotic GT3 cohort, and the cirrhotic cohort, respectively.

Q: What does the source list for `CNc1nc(N)nc2c1ncn2[C@@H]1O[C@H](CO[P@@](=O)(N[C@@H](C)C(=O)OC(C)C)Oc2ccccc2)[C@@H](O)[C@@]1(C)F` [Compound 1-A, isopropyl ((S)-(((2R,3R,4R,5R)-5-(2-amino-6-(methylamino)-9H-purin-9-yl)-4-fluoro-3-hydroxy-4-methyltetrahydrofuran-2-yl)methoxy) (phenoxy)phosphoryl)-L-alaninate hemisulfate]?
A: Appearance ([1]; 0 month): White; Assay ([1]; 0 month): 98.8%; IR ([1]; 0 month): correspond; Related Substance 1 Any other single impurity ([1]; 0 month): 0.01%; Related Substance 1 Total Impurities ([1]; 0 month): 0.01%; Water ([1]; 0 month): 0.45%; Appearance ([1]; 1st month): White; Assay ([1]; 1st month): 101.5%; Related Substance 1 Any other single impurity ([1]; 1st month): 0.02%; Related Substance 1 Total Impurities ([1]; 1st month): 0.02%; Water ([1]; 1st month): 0.21%; Appearance ([1]; 3rd month): White; Assay ([1]; 3rd month): 99.6%; IR ([1]; 3rd month): correspond; Related Substance 1 Any other single impurity ([1]; 3rd month): 0.01%; Related Substance 1 Total Impurities ([1]; 3rd month): 0.02%; Water ([1]; 3rd month): 0.36%; Appearance ([1]; 6th month): White; Assay ([1]; 6th month): 99.5%; IR ([1]; 6th month): correspond; Related Substance 1 Any other single impurity ([1]; 6th month): 0.05%; Related Substance 1 Impurity F ([1]; 6th month): 0.01%; Related Substance 1 Total Impurities ([1]; 6th month): 0.08%; Related Substance 2 Impurity G ([1]; 6th month): no detection; Water ([1]; 6th month): 0.41%; Chemical stability (overall conclusion) ([1]; accelerated, ambient and refrigerator studies): very chemically stable; active TP (metabolite 1-6) level in heart [2]: Relatively low levels; active TP (metabolite 1-6) level in liver [2]: High levels; intensity of adverse effects [3]: mild to moderate; serious adverse events ([3]; healthy subjects, single dose): No serious adverse events; mean maximum HCV RNA reduction ([4]; 600 mg QD for 7 days, CPA cirrhotic): 4.4 log10 IU/mL and 4.6 log10 IU/mL; Mean Max Reduction ([4]; GT1, Child-Pugh A (n = 3)): 4.2 log10 IU/mL; Mean Reduction After 24 hours ([4]; GT1, Child-Pugh A (n = 3)): 2.4 log10 IU/mL; HCV RNA < LOQ (15 IU/mL) ([4]; GT1, Child-Pugh A (n = 3)): 1/3; Mean Max Reduction ([4]; GT3, Child-Pugh A (n = 1)): 4.8 log10 IU/mL; Mean Reduction After 24 hours ([4]; GT3, Child-Pugh A (n = 1)): 2.2 log10 IU/mL; HCV RNA < LOQ (15 IU/mL) ([4]; GT3, Child-Pugh A (n = 1)): 0/1; HCV RNA reduction ([4]; cirrhotic GT1, within the first 24 hours): 2.4 log10; HCV RNA reduction ([4]; cirrhotic GT3, within the first 24 hours): 2.2 log10
